Measured values from ChEMBL document CHEMBL1201862, “PubChem BioAssay data set” (2004).
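Where inhibition never reached the appropriate level, the endpoint shown equals the highest concentration tested. Otherwise, values were interpolated linearly from a five-concentration, 48-hour dose response in 96-well plates. The concentration for 50% growth inhibition is given as GI50.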 Activity calls are given as the source filed them. Cut-off read from the data, not from the text of the source: active = GI50 up to about 1.1 µM and inactive = higher.

What was measured:
Assay in all cases: NCI anticancer screen, dose series, 48 h
Hs-578T = test system: Hs-578T
PC-3 = test system: PC-3
NCI-H522 = test system: NCI-H522
NCI/ADR-RES = test system: NCI/ADR-RES
SK-MEL-28 = test system: SK-MEL-28
OVCAR-4 = test system: OVCAR-4
SF-295 = test system: SF-295
CAKI-1 = test system: CAKI-1
HT-29 = test system: HT-29
T47D = test system: T47D
MDA-MB-231 = test system: MDA-MB-231
OVCAR-5 = test system: OVCAR-5
KM12 = test system: KM12
HOP-92 = test system: HOP-92
HCC 2998 = test system: HCC 2998
RXF 393 = test system: RXF 393
IGROV-1 = test system: IGROV-1
SK-OV-3 = test system: SK-OV-3
HOP-62 = test system: HOP-62
OVCAR-3 = test system: OVCAR-3
TK-10 = test system: TK-10
UACC-62 = test system: UACC-62
LOX IMVI = test system: LOX IMVI
SF-539 = test system: SF-539
MCF7 = test system: MCF7
SF-268 = test system: SF-268
SK-MEL-2 = test system: SK-MEL-2
SW-620 = test system: SW-620
NCI-H226 = test system: NCI-H226
UO-31 = test system: UO-31
CCRF-CEM = test system: CCRF-CEM
SK-MEL-5 = test system: SK-MEL-5
A498 = test system: A498
A549 = test system: A549
EKVX = test system: EKVX
MDA-MB-435 = test system: MDA-MB-435
COLO 205 = test system: COLO 205
RPMI-8226 = test system: RPMI-8226
ACHN = test system: ACHN
HCT-116 = test system: HCT-116
U-251 = test system: U-251
BT-549 = test system: BT-549
Malme-3M = test system: Malme-3M
NCI-H460 = test system: NCI-H460
OVCAR-8 = test system: OVCAR-8
HL-60 = test system: HL-60
K562 = test system: K562
SNB-75 = test system: SNB-75
HCT-15 = test system: HCT-15
UACC-257 = test system: UACC-257
NCI-H23 = test system: NCI-H23
SNB-19 = test system: SNB-19
M14 = test system: M14
MDA-N = test system: MDA-N
SR = test system: SR
DU-145 = test system: DU-145
SN12C = test system: SN12C
786-0 = test system: 786-0
MOLT-4 = test system: MOLT-4

Measured: GI50

O=C1C=CC2(C=C1)O[C@H](Cc1ccccc1)[C@@H](Cc1ccccc1)O2
active: Hs-578T 0.716 µM | PC-3 0.873 µM | NCI-H522 0.174 µM | NCI/ADR-RES 0.303 µM | SK-MEL-28 0.887 µM | OVCAR-4 0.347 µM | CAKI-1 0.484 µM | HT-29 0.964 µM | T47D 0.44 µM | MDA-MB-231 1.12 µM | OVCAR-5 0.281 µM | HOP-92 1.01 µM | RXF 393 0.26 µM | IGROV-1 0.218 µM | OVCAR-3 0.298 µM | TK-10 0.506 µM | LOX IMVI 0.223 µM | SF-539 0.37 µM | MCF7 0.256 µM | SF-268 0.755 µM | SW-620 0.137 µM | NCI-H226 0.255 µM | UO-31 0.258 µM | CCRF-CEM 0.102 µM | SK-MEL-5 0.568 µM | EKVX 0.355 µM | RPMI-8226 0.177 µM | ACHN 0.279 µM | HCT-116 0.1 µM | U-251 1.05 µM | BT-549 0.201 µM | OVCAR-8 0.193 µM | K562 0.388 µM | M14 0.653 µM | MDA-N 0.246 µM | SR 0.11 µM | SN12C 0.665 µM
0.243 µM: HCT-15
inactive: SF-295 2.17 µM | KM12 1.69 µM | HCC 2998 2.64 µM | SK-OV-3 5.85 µM | HOP-62 1.15 µM | UACC-62 1.66 µM | SK-MEL-2 1.41 µM | A498 5.74 µM | A549 4.62 µM | MDA-MB-435 1.31 µM | COLO 205 1.55 µM | Malme-3M 1.48 µM | NCI-H460 8.79 µM | HL-60 1.28 µM | SNB-75 2.91 µM | UACC-257 1.28 µM | NCI-H23 1.16 µM | SNB-19 2.11 µM | DU-145 1.26 µM

O=C(O)c1[nH]c(=O)[nH]c(=O)c1CN1CCCCC1
inactive: Hs-578T > 100 µM | PC-3 > 100 µM | NCI-H522 > 100 µM | NCI/ADR-RES > 100 µM | SK-MEL-28 > 100 µM | OVCAR-4 > 100 µM | SF-295 > 100 µM | CAKI-1 > 100 µM | HT-29 > 100 µM | T47D > 100 µM | MDA-MB-231 > 100 µM | OVCAR-5 > 100 µM | KM12 > 100 µM | HOP-92 > 100 µM | HCC 2998 > 100 µM | RXF 393 > 100 µM | IGROV-1 > 100 µM | SK-OV-3 > 100 µM | HOP-62 > 100 µM | OVCAR-3 > 100 µM | TK-10 > 100 µM | UACC-62 > 100 µM | LOX IMVI > 100 µM | MCF7 > 100 µM | SF-268 > 100 µM | SK-MEL-2 > 100 µM | SW-620 > 100 µM | NCI-H226 > 100 µM | UO-31 > 100 µM | SK-MEL-5 > 100 µM | A498 > 100 µM | A549 > 100 µM | EKVX > 100 µM | MDA-MB-435 > 100 µM | COLO 205 > 100 µM | RPMI-8226 > 100 µM | ACHN > 100 µM | HCT-116 > 100 µM | U-251 > 100 µM | 786-0 > 100 µM | BT-549 > 100 µM | Malme-3M > 100 µM | NCI-H460 > 100 µM | OVCAR-8 > 100 µM | HL-60 > 100 µM | K562 > 100 µM | SNB-75 > 100 µM | UACC-257 > 100 µM | NCI-H23 > 100 µM | SNB-19 > 100 µM | M14 > 100 µM | MDA-N > 100 µM | SR > 100 µM | DU-145 > 100 µM | SN12C > 100 µM
active: CCRF-CEM 0.0553 µM
> 100 µM: HCT-15

NC(Cc1ncccn1)C(=O)O (configuration not stated)
> 100 µM: HCT-15
inactive: Hs-578T > 100 µM | PC-3 > 100 µM | NCI-H522 > 100 µM | NCI/ADR-RES > 100 µM | SK-MEL-28 > 100 µM | OVCAR-4 > 100 µM | SF-295 > 100 µM | CAKI-1 > 100 µM | HT-29 > 100 µM | T47D > 100 µM | MDA-MB-231 > 100 µM | OVCAR-5 > 100 µM | KM12 > 100 µM | HOP-92 > 100 µM | HCC 2998 > 100 µM | RXF 393 > 100 µM | IGROV-1 > 100 µM | SK-OV-3 > 100 µM | HOP-62 > 100 µM | OVCAR-3 > 100 µM | TK-10 > 100 µM | UACC-62 > 100 µM | LOX IMVI > 100 µM | SF-539 > 100 µM | MCF7 > 100 µM | SF-268 > 100 µM | SK-MEL-2 > 100 µM | SW-620 > 100 µM | NCI-H226 > 100 µM | UO-31 > 100 µM | CCRF-CEM > 100 µM | SK-MEL-5 > 100 µM | A498 > 100 µM | A549 > 100 µM | EKVX > 100 µM | MDA-MB-435 > 100 µM | COLO 205 > 100 µM | RPMI-8226 > 100 µM | ACHN > 100 µM | HCT-116 > 100 µM | U-251 > 100 µM | MOLT-4 > 100 µM | 786-0 > 100 µM | BT-549 > 100 µM | Malme-3M > 100 µM | NCI-H460 > 100 µM | OVCAR-8 > 100 µM | K562 > 100 µM | SNB-75 > 100 µM | UACC-257 > 100 µM | NCI-H23 > 100 µM | SNB-19 > 100 µM | M14 > 100 µM | MDA-N > 100 µM | SR > 100 µM | DU-145 > 100 µM | SN12C > 100 µM
